From patent US9617229B2, “Phenylmorpholines and analogues thereof” (Research Triangle Institute, priority 2010, dated 2017)
Read-outs that look alike come from different tables or passages of the source.

What was measured:
5-HT2B receptor [1] = target: T1, 5-HT2B receptor (Homo sapiens, UniProt P41595); test: 5-HT2B activity, agonist; type: cell-based
SERT [2] = target: T2, SERT (Rattus norvegicus, UniProt P31652); test: 5-HT release assay (synaptosomes, [3H]5-HT); type: biochemical; design: the supernatants were retained on ice (synaptosomal preparation); from tissue; host or cells: rat whole brain minus cerebellum and caudate, synaptosomes; details: for activation at 10 µM / Release 5-HT (EC50 nm): Table 3; for Release 5-HT (EC50 nm): rat brain synaptosomes; for 5HT Rel (%): Table 4, % EC50 of release
T2 sequence (P31652 whole entry): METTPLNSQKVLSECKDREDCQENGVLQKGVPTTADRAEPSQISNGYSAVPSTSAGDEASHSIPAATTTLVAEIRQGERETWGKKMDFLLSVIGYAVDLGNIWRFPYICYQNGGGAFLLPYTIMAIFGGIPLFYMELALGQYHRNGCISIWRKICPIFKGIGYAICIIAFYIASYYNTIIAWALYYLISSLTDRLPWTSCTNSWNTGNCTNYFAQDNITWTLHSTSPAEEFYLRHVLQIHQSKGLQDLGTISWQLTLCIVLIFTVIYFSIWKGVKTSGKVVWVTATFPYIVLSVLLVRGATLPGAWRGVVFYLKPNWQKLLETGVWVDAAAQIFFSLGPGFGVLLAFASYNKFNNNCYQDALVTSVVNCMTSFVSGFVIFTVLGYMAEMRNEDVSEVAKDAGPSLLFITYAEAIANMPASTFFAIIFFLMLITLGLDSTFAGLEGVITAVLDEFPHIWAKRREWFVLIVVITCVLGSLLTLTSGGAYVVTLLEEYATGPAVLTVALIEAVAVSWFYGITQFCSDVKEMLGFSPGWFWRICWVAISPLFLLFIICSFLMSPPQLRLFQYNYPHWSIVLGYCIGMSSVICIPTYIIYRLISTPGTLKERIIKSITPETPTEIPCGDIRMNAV
Experimental: (§1) Rat caudate (for DA release) or whole brain minus cerebellum and caudate (for NE and 5-HT release), was homogenized in ice-cold 10% sucrose containing 1 μM reserpine. Nomifensine (100 nM) and GBR12935 (100 nM) were added to the sucrose solution for [^3H]5-HT release experiments to block any potential [^3H]5-HT reuptake into NE and DA nerve terminals. For the DA release assay, 100 nM desipramine and 100 nM citalopram were added to block [^3H]MPP^+ uptake into NE and 5-HT nerves. For the NE release assay, 50 nM GBR12935 and 100 nM citalopram were added to block [^3H]MPP^+ uptake into DA and 5-HT nerves. After 12 strokes with a Potter-Elvehjem homogenizer, homogenates were centrifuged at 1000×g for 10 min at 0-4° C. and the supernatants were retained on ice (synaptosomal preparation).
(§2) After incubation to steady state, 850 μl of synaptosomes preloaded with [^3H]ligand were added to 12×75 mm polystyrene test tubes that contained 150 μl test drug in uptake buffer plus 1 mg/ml BSA. After 5 min (^3H]5-HT) or 30 min (NE and DA assays) the release reaction was terminated by dilution with 4 ml wash buffer (10 mM Tris-HCl pH 7.4 containing 0.9% NaCl at 25° C.) followed by rapid vacuum filtration over Whatman GF/B filters using a Brandel Harvester. The filters were rinsed twice with 4 ml wash buffer using the Brandel Harvester, and the retained tritium was counted by a Taurus liquid scintillation counter at 40% efficiency after an overnight extraction in 3 ml Cytoscint (ICN).
(§3) In substrate reversal experiments, statistical significance was determined using the Student's t-test.

NET = target: T3, NET (Rattus norvegicus, UniProt Q63380); test: NE release assay (synaptosomes, [3H]MPP+); type: biochemical; details: for NE Rel (%): % EC50 of release
T3 construct: the supernatants were retained on ice (synaptosomal preparation); from tissue; host or cells: rat whole brain minus cerebellum and caudate, synaptosomes
T3 sequence (Q63380 1-617): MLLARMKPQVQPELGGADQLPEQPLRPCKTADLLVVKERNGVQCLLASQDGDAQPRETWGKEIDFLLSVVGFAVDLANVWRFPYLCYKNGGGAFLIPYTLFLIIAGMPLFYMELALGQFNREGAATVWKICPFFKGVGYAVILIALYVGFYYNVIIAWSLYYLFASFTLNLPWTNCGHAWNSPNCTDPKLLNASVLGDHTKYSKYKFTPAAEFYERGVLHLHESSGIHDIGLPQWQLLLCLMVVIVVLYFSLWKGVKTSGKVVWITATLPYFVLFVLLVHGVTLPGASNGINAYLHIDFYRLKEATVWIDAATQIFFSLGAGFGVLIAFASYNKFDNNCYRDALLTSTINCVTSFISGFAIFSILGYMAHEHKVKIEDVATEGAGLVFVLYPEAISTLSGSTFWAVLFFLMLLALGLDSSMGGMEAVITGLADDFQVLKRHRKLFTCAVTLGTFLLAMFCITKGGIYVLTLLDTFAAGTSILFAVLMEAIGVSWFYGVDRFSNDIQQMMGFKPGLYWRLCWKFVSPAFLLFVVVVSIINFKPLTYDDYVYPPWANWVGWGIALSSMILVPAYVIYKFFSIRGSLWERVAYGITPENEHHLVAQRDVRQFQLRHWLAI
Experimental: as §1, §2, §3

5-HT2B receptor [3] = target: T1, 5-HT2B receptor; test: 5-HT2B activity, antagonist; type: cell-based
DAT = DAT (Rattus norvegicus, UniProt P23977); test: DA release assay (synaptosomes, [3H]MPP+); type: biochemical; design: the supernatants were retained on ice (synaptosomal preparation); from tissue; host or cells: rat caudate synaptosomes; details: for activation at 10 µM: Table 3
Sequence of DAT (P23977 whole entry): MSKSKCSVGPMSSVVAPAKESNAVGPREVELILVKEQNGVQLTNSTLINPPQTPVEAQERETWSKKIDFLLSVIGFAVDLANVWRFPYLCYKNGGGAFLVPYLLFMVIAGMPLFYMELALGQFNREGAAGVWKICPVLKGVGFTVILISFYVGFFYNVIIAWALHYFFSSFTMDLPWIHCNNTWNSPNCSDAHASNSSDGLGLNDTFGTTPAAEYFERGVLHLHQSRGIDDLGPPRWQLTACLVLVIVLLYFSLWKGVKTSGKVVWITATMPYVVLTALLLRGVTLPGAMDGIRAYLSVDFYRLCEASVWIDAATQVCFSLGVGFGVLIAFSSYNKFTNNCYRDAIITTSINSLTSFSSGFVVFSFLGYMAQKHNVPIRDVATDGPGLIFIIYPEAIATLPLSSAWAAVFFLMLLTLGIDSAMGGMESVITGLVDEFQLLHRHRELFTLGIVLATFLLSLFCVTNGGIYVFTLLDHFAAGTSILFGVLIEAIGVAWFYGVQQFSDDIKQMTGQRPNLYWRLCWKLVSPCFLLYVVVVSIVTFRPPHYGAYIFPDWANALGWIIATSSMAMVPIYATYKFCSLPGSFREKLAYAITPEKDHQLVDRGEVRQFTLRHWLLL
Experimental: as §1, §2, §3

SERT [4] = target: T2, SERT; test: 5HT uptake inhibition; type: biochemical
[5] = Release NE (EC50 nm), Table 3, rat brain synaptosomes

T1 sequence (P41595 whole entry): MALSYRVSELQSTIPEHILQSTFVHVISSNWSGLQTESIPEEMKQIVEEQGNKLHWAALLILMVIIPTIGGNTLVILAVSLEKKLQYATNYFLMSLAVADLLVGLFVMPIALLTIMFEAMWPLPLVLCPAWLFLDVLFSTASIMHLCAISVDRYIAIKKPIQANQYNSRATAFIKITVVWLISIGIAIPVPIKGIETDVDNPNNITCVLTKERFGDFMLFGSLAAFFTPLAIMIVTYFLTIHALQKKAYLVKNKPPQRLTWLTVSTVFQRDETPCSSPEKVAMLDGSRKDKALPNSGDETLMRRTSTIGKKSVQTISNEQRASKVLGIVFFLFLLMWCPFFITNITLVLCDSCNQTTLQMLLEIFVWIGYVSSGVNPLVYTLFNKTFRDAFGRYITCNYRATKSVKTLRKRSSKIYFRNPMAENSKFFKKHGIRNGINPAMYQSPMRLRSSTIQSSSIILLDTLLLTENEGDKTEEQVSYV

**Q.** How did the activation at 10 µM (5-HT2B receptor [1]) turn out when `CC1NCCOC1(O)c1cccc(Cl)c1` (centres unmarked) [PAL590, 2-(3-chlorophenyl)-3-methylmorpholin-2-ol] was run?
**A.** The activation at 10 µM was 0%.

**Q.** And the activation at 10 µM (SERT [2])?
**A.** Its activation at 10 µM is 41%.

**Q.** And the activation at 10 µM (NET; Table 3)?
**A.** Its activation at 10 µM is 62%.

**Q.** What about the inhibition at 1 µM (5-HT2B receptor [3]) of the same compound?
**A.** Its inhibition at 1 µM is 16%.

**Q.** What about the activation at 10 µM (DAT) of the same compound?
**A.** Its activation at 10 µM is 39%.

**Q.** With `C[C@H]1NCCO[C@H]1c1ccccc1` [PAL60, reference compound] as the compound, how does the activation at 10 µM (5-HT2B receptor [1]) read?
**A.** The activation at 10 µM was 0%.

**Q.** And the “Release 5-HT (EC50 nm)” value (SERT [2])?
**A.** Its value is “Inactive”.

**Q.** And the EC50 (NET; [5])?
**A.** Its EC50 is 0.349 µM.

**Q.** And the EC50 (DAT)?
**A.** The EC50 was 1.46 µM.

**Q.** Which results are given for `C[C@H]1NCCOC1c1ccccc1` (some centres unmarked) [PAL55, reference compound]?
**A.** activation at 10 µM (5-HT2B receptor [1]): 0%; EC50 (SERT [2]): 7.77 µM; EC50 (NET; [5]): 0.05 µM; EC50 (DAT): 0.131 µM

**Q.** With `CC1NCCOC1c1cccc(C#N)c1.Cl` (centres unmarked) [PAL 786, 3-Methyl-[(3′-Cyano)-2-Phenyl]morpholine hydrochloride] as the compound, how does the “5HT Rel (%)” value (SERT [2]) read?
**A.** The value was 99%.

**Q.** What about the “NE Rel (%)” value (NET; Table 4) of the same compound?
**A.** Its value is 100%.

**Q.** What about the “DA Rel (%)” value (DAT; Table 4, % EC50 of release) of the same compound?
**A.** The value was 99%.

**Q.** For `CC1NCCOC1c1cccc(O)c1.Cl` (centres unmarked) [PAL 780, 3-Methyl-[(3′-Hydroxy)-2-Phenyl]morpholine hydrochloride], which “5HT Rel (%)” value (SERT [2]) is on record?
**A.** Its value is 70%.

**Q.** What about the “NE Rel (%)” value (NET; Table 4) of the same compound?
**A.** Its value is 100%.

**Q.** What about the “DA Rel (%)” value (DAT; Table 4, % EC50 of release) of the same compound?
**A.** Its value is 97%.

**Q.** Which results are given for `C[C@H]1NCCOC1c1cccc(Cl)c1` (stereo in doubt) [PAL594, 2-(3-chloro-phenyl)-3-methyl-morpholine]?
**A.** activation at 10 µM (5-HT2B receptor [1]): 2%; 5HT releaser activity (in words) (SERT [2]): improvements in 5HT release; EC50 (SERT [2]): 0.301 µM; activation at 10 µM (SERT [2]): 95%; EC50 (NET; NE Rel (EC50), Table 4): 0.075 µM; activation at 10 µM (NET; Table 3): 82%; inhibition at 1 µM (5-HT2B receptor [3]): 28%; EC50 (DAT): 0.027 µM; activation at 10 µM (DAT): 100%

**Q.** `C[C@@H]1NCCO[C@H]1c1ccccc1` [PAL57, reference compound] was tested. Which activation at 10 µM (5-HT2B receptor [1]) did it give?
**A.** The activation at 10 µM was 0%.

**Q.** And the “Release 5-HT (EC50 nm)” value (SERT [2])?
**A.** Its value is “inactive”.

**Q.** And the EC50 (NET; [5])?
**A.** The EC50 was 0.063 µM.

**Q.** And the EC50 (DAT)?
**A.** The EC50 was 0.415 µM.

**Q.** For `c1ccc(C2CNCCO2)cc1` (centres unmarked) [PAL632], which activation at 10 µM (5-HT2B receptor [1]) is on record?
**A.** Its activation at 10 µM is 2%.

**Q.** What about the EC50 (SERT [2]) of the same compound?
**A.** The EC50 was 20.3 µM.

**Q.** What about the activation at 10 µM (SERT [2]) of the same compound?
**A.** The activation at 10 µM was 31%.

**Q.** And the EC50 (NET; NE Rel (EC50), Table 4)?
**A.** The EC50 was 0.079 µM.

**Q.** What about the activation at 10 µM (NET; Table 3) of the same compound?
**A.** Its activation at 10 µM is 96%.

**Q.** And the inhibition at 1 µM (5-HT2B receptor [3])?
**A.** Its inhibition at 1 µM is 12%.

**Q.** And the EC50 (DAT)?
**A.** Its EC50 is 0.086 µM.

**Q.** And the activation at 10 µM (DAT)?
**A.** The activation at 10 µM was 98%.

**Q.** For `C[C@H]1CO[C@@H](c2cccc(F)c2)CN1` [PAL 890, (2S,5S)-2-(3-Fluoro-phenyl)-5-methyl-morpholine], which “DA Rel (%)” value (DAT; Table 5) is on record?
**A.** Its value is 96%.

**Q.** Which results are given for `C[C@H]1CO[C@@H](c2cccc(Cl)c2)CN1` [PAL 738, (2S,5S)-2-(3-Chloro-phenyl)-5-methyl-morpholine]?
**A.** EC50 (SERT [2]): 0.023 µM; EC50 (NET): 0.065 µM; EC50 (DAT): 0.058 µM

**Q.** With `Cc1cccc([C@H]2CN[C@@H](C)CO2)c1` [PAL 886, (2S,5S)-5-Methyl-2-m-tolyl-morpholine] as the compound, how does the “DA Rel (%)” value (DAT; Table 5) read?
**A.** Its value is 86%.

**Q.** `Cc1cccc(C2(O)OCCNC2C)c1` (centres unmarked) [PAL589, 3-methyl-2-(3′-tolyl)morpholin-2-ol] was tested. Which activation at 10 µM (5-HT2B receptor [1]) did it give?
**A.** The activation at 10 µM was 0%.

**Q.** What about the activation at 10 µM (SERT [2]) of the same compound?
**A.** The activation at 10 µM was 56%.

**Q.** And the activation at 10 µM (NET; Table 3)?
**A.** Its activation at 10 µM is 47%.

**Q.** What about the inhibition at 1 µM (5-HT2B receptor [3]) of the same compound?
**A.** Its inhibition at 1 µM is 12%.

**Q.** What about the activation at 10 µM (DAT) of the same compound?
**A.** Its activation at 10 µM is 28%.

**Q.** What does the source list for `CC1NCCOC1c1ccc(Cl)c(Cl)c1.Cl` (centres unmarked) [PAL 788, 3-Methyl-[(3′,4′-Dichloro)-2-Phenyl]morpholine hydrochloride]?
**A.** 5HT uptake inhibition (in words) (SERT [4]): 5HT uptake inhibitors; 5HT Up (%) (SERT [4]; Table 4): 95%; NE releaser activity (in words) (NET): DA/NE releasers; NE Rel (%) (NET; Table 4): 98%; DA releaser activity (in words) (DAT): DA/NE releasers; DA Rel (%) (DAT; Table 4, % EC50 of release): 60%

**Q.** How did the “5HT Rel (%)” value (SERT [2]) turn out when `CC1NCCOC1c1ccc(Cl)cc1.CC1NCCOC1c1ccc(Cl)cc1.O=C(O)/C=C/C(=O)O` (centres unmarked) [PAL 749, 3-Methyl-[(4′-Chloro)-2-Phenyl]morpholine (0.5 fumarate)] was run?
**A.** Its value is 76%.

**Q.** And the “NE Rel (%)” value (NET; Table 4)?
**A.** Its value is 93%.

**Q.** And the “DA Rel (%)” value (DAT; Table 4, % EC50 of release)?
**A.** The value was 88%.

**Q.** Which results are given for `C[C@H]1NCCO[C@@H]1c1ccccc1` [PAL56, (+)-phenmetrazine, reference compound]?
**A.** activation at 10 µM (5-HT2B receptor [1]): 0%; 5HT releaser activity (in words) (SERT [2]): effective DA/5HT releaser; EC50 (SERT [2]): 3.25 µM; EC50 (NET; NE Rel (EC50), Table 4): 0.038 µM; EC50 (NET; [5]): 0.037 µM; inhibition at 1 µM (5-HT2B receptor [3]): 42%; DA releaser activity (in words) (DAT): effective DA/5HT releaser; EC50 (DAT): 0.087 µM

**Q.** With `CC1NCCOC1c1ccc(F)cc1.CC1NCCOC1c1ccc(F)cc1.O=C(O)/C=C/C(=O)O` (centres unmarked) [PAL 748, 3-Methyl-[(4′-Fluoro)-2-Phenyl]morpholine (0.5 fumarate)] as the compound, how does the “5HT Rel (%)” value (SERT [2]) read?
**A.** Its value is 94%.

**Q.** What about the “NE Rel (%)” value (NET; Table 4) of the same compound?
**A.** The value was 93%.

**Q.** And the “DA Rel (%)” value (DAT; Table 4, % EC50 of release)?
**A.** The value was 98%.

**Q.** Which results are given for `Fc1ccc(C2CNCCO2)cc1` (centres unmarked) [PAL635, 2-(4-fluorophenyl)morpholine]?
**A.** activation at 10 µM (5-HT2B receptor [1]): 0%; EC50 (SERT [2]): 2.4 µM; activation at 10 µM (SERT [2]): 88%; EC50 (NET; NE Rel (EC50), Table 4): 0.285 µM; activation at 10 µM (NET; Table 3): 100%; EC50 (DAT): 0.529 µM; activation at 10 µM (DAT): 95%
